{
  "source": "patent US8686016B2",
  "about": "“Schweinfurthins and uses thereof” (The United States of America, as represented by the …, priority 2009, dated 2014)",
  "key": {"MPNST K14553 cells": {"tested_on": "MPNST K14553 cells", "assay": "XTT cell proliferation assay, K14553", "type": "cell-based, mouse", "method": "(§1) Establishment of NPcis MPNST cell lines: Mice were euthanized by CO2 asphyxiation and tumors were dissected. The tumor volume was measured. The tumor was then cut in half, and ½ fixed in 4% PFA. The other half was rinsed, then cut into 24 pieces of approximately equal size. Each piece was diced with a razor blade and placed in 1 well of a 24 well plate, along with 625 μL of Triple Express (Gibco, Grand Island, N.Y., USA) and 5 μL of recombinant DNAse (Roche, Indianapolis, Ind., USA). Tumors were triturated, then incubated at 37° C. in a 5% CO2 incubator for 2-5 hours, with an additional trituration halfway through incubation time. At the end of the incubation, tumor pieces were triturated again, and suspended cells were transferred to 1.5 mL eppendorf tubes. […] Both plates were monitored for cell growth, grown up to 10 cm plates, and frozen down in 10% DMSO. […]\n(§2) XTT Cell Proliferation Assay: Cells were seeded into 96-well plates at a density of 2,000 cells/well and allowed to reattach overnight. Cells were treated with SA, synthetic analogs, camptothecin (NCI Chemotherapeutics Repository, Md., USA), or DMSO control at the indicated concentrations continuously for 48 hours followed by assay in the 96-well plate for relative viable cell number using the dye […] (XTT) and a Wallac-Victor 2 plate reader (Perkin-Elmer, Waltham, Mass., USA). […]"}, "NCI 60-cell line panel": {"tested_on": "NCI 60-cell line panel", "assay": "NCI 60 cell line assay", "type": "cell-based, human"}, "MPNST T265 cells": {"tested_on": "MPNST T265 cells", "assay": "XTT cell proliferation assay, T265", "type": "cell-based, human", "method": "(§3) XTT Cell Proliferation Assay: Cells were seeded into 96-well plates at a density of 2,000 cells/well and allowed to reattach overnight. Cells were treated with SA, synthetic analogs, camptothecin (NCI Chemotherapeutics Repository, Md., USA), or DMSO control at the indicated concentrations continuously for 48 hours followed by assay in the 96-well plate for relative viable cell number using the dye […] (XTT) and a Wallac-Victor 2 plate reader (Perkin-Elmer, Waltham, Mass., USA). Absorbance was determined at 450 nm with 650 nm as a reference reading. Primary astrocytes were additionally assayed at a 96 hour time point.\nCell lines and culture: Human MPNST cell lines (STS26T and T265) were obtained from the Pediatric Oncology Branch, NCI (Bethesda, Md., USA)."}, "Chemical stability": {"assay": "Chemical stability", "type": "physicochemical", "conditions": "compared with the free resorcinols"}, "MPNST K16561 cells": {"tested_on": "MPNST K16561 cells", "assay": "XTT cell proliferation assay, K16561", "type": "cell-based, mouse", "method": "as §1, §2"}, "[1]": {"tested_on": "KR158 cells stably transfected with GFP-actin", "assay": "Cell morphology / actin confocal microscopy, KR158 GFP-actin", "type": "cell-based, mouse", "conditions": "16-18 hrs treatment", "procedure": "Doxorubicin studies: KR158 stably transfected with GFP-actin were treated with 25 and 50 μM doxorubicin for 18 hrs continuously.\nCell Morphology Assays and Confocal Microscopy: To assay cytoskeleton morphology, KR158 cells, mouse primary astrocytes, KR158 clones expressing the NF1-GRD constructs, K14553 cells, and A549 were seeded to cover slips and allowed to reattach overnight. Cells were treated for 18 hours with either the indicated concentrations of SA, or the vehicle control DMSO. The cover slips were fixed in 3.7% paraformaldehyde, permeablized in 0.1% Triton-X100, and stained with Alexa Fluor 488-phalloidin (Invitrogen, Carlsbad, Calif., USA) to detect actin and cells were mounted in Prolong Antifade containing DAPI (Invitrogen) to stain nuclei. The cells were imaged on a LSM510 confocal microscope (Carl Zeiss Inc., Jena, Germany). […] KR158 GFP-actin transfected cells were seeded to 8-well chamber slides, allowed to reattach, and then treated with indicated concentrations of SA. Actin structures were monitored continuously over a 16 hr period using confocal microscopy equipped with a growth chamber (37° C., humidified atmosphere and 5% CO2). To compare SA to Rho/Rock inhibitors, KR158 GFP-actin cells were treated with SA or with the Rho pathway inhibitors Rock inhibitor Y-27632 (Sigma, St. Louis, Mo., USA), and the Rho inhibitor C3 transferase (Cytoskeleton, Inc., Denver, Colo., USA, cat# CT04) for 16 hrs, and then examined by confocal microscopy."}, "A549 cells": {"tested_on": "A549 cells", "assay": "XTT cell proliferation assay, A549", "type": "cell-based, human", "conditions": "48 hours", "method": "as §3"}},
  "data": [
    {"compound": "CC(C)=CCC/C(C)=C/Cc1c(O)cc(/C=C/c2cc(O)c3c(c2)C[C@@H]2C(C)(C)[C@H](O)CC[C@@]2(C)O3)cc1O", "note": "[3dSB, 3-Deoxyschweinfurthin B]", "values": [
      {"measurement": "inhibition of proliferation (percent viability versus control)", "setting": "MPNST K14553 cells", "value": "sensitive"}
    ]},
    {"compound": "COc1cc(/C=C/c2cc3c(c(OC)c2)O[C@]2(C)C[C@@H](O)[C@@H](O)C(C)(C)[C@H]2C3)cc(O)c1CC=C(C)C", "note": "[5′MeSE, 5′-Methylschweinfurthin E]", "values": [
      {"measurement": "GI50", "setting": "NCI 60-cell line panel", "value": "low nM range"},
      {"measurement": "inhibition of proliferation (percent viability versus control)", "setting": "MPNST T265 cells", "value": "sensitive"},
      {"measurement": "chemical stability", "setting": "Chemical stability", "value": "more stable chemically than the free resorcinols"}
    ]},
    {"compound": "COc1cc(/C=C/c2cc(O)c3c(c2)C[C@@H]2C(C)(C)[C@H](O)CC[C@@]2(C)O3)cc(O)c1CC=C(C)C", "note": "[5′MeSG, 5′-Methylschweinfurthin G]", "values": [
      {"measurement": "GI50", "setting": "NCI 60-cell line panel", "value": "low nM range"},
      {"measurement": "inhibition of proliferation (percent viability versus control)", "setting": "MPNST K16561 cells", "value": "sensitive"},
      {"measurement": "inhibition of proliferation (percent viability versus control)", "setting": "MPNST T265 cells", "value": "sensitive"},
      {"measurement": "chemical stability", "setting": "Chemical stability", "value": "more stable chemically than the free resorcinols"}
    ]},
    {"compound": "COc1cc(/C=C/c2cc(O)c(C/C=C(\\C)CCC=C(C)C)c(O)c2)cc2c1O[C@]1(C)C[C@@H](O)[C@@H](O)C(C)(C)[C@H]1C2", "note": "[SB, Schweinfurthin B]", "values": [
      {"measurement": "differential cytotoxicity", "setting": "NCI 60-cell line panel; NCI 60-cell line panel", "value": "significant differential cytotoxicity"},
      {"measurement": "inhibition of proliferation (percent viability versus control)", "setting": "MPNST T265 cells", "value": "sensitive"}
    ]},
    {"compound": "C[C@@H](N)[C@H]1CC[C@H](C(=O)Nc2ccncc2)CC1", "note": "[Y-27632, reference compound]", "values": [
      {"measurement": "F-actin staining / stress fibers", "setting": "[1]", "value": "dramatic loss of F-actin staining"}
    ]},
    {"compound": "CC[C@@]1(O)C(=O)OCc2c1cc1n(c2=O)Cc2cc3ccccc3nc2-1", "note": "[camptothecin, reference compound]", "values": [
      {"measurement": "inhibition of proliferation (percent viability versus control)", "setting": "A549 cells", "value": "sensitive"}
    ]},
    {"compound": "COc1cccc2c1C(=O)c1c(O)c3c(c(O)c1C2=O)C[C@@](O)(C(=O)CO)C[C@@H]3O[C@H]1C[C@H](N)[C@H](O)[C@H](C)O1", "note": "[doxorubicin, reference compound]", "values": [
      {"measurement": "F-actin staining / stress fibers", "setting": "[1]", "value": "retained stress fibers"}
    ]},
    {"compound": "C3 transferase", "values": [
      {"measurement": "F-actin staining / stress fibers", "setting": "[1]", "value": "dramatic loss of F-actin staining"}
    ]}
  ]
}
